Key:
Pseudomonas aeruginosa = assay: MIC by standard blood agar dilution technique
Description: (§1) The following bacteria were investigated: methicillin-resistant Staphylococcus aureus (MSRA), fucidic acid-resistant S. aureus, non-resistant S. pyogenes, coagulation-negative staphylococci (for resistance, see Table 1 below) vancomycin-resistant enterococci (Enterococcus CCUG van A and van B), non-resistant Escherichia coli, Acinetobacter resistant against cefadroxil, nitrofurantin, mecillinam, Serratia maltophilia resistant against most types of antibiotics, Enterobacter (for resistance, see Table 1 below; additionally resistant against cefadroxil and nitrofurantin), non-resistant α-streptococci, non-resistant Streptococcus Group G, Pseudomonas aeruginosa (for resistance, see Table 2 below). Inocula of 10^3 and 10^5 bacteria were used.

male rabbits = settings: four male rabbits, skin sealed 24 hrs, highest tested dose 20 ml/kg, observed over a fortnight
Experimental: Topical administration. The penetration of rabbit skin was tested with a cuff model. The hair on the back of four male rabbits weighing from 2.5 to 3.5 kg was removed by shaving, the diol applied to the skin with a pipette, and the skin sealed with polyethylene film for 24 hrs. During the test period the animals were immobilised. After the exposure the animals were observed over a fortnight period.

[1] = test system: coagulation-negative staphylococci; assay: MIC by standard blood agar dilution technique
Description: as §1

[2] = test system: methicillin-resistant Staphylococcus aureus; assay: MIC by standard blood agar dilution technique; settings: MR fuc +, met +
Description: as §1

Acinetobacter = assay: MIC by standard blood agar dilution technique; settings: inoculate size 10^3
Description: as §1

Escherichia coli = assay: MIC by standard blood agar dilution technique
Description: as §1

## OCCCCCO [pentane-1,5-diol]
Pseudomonas aeruginosa; P. aeruginosa 921 × 17701, inoculate size 10^3, MR cip +, tri +
  MIC (% by weight of pentane-1,5-diol): 5.0 % by weight
Pseudomonas aeruginosa; P. aeruginosa 921 × 17748, inoculate size 10^3, MR cip −, tri +
  MIC (% by weight of pentane-1,5-diol): 5.0 % by weight
Pseudomonas aeruginosa; P. aeruginosa 921 × 17756, inoculate size 10^3, MR cip +, tri +
  MIC (% by weight of pentane-1,5-diol): 5.0 % by weight
Pseudomonas aeruginosa; P. aeruginosa 921 × 57855, inoculate size 10^5, MR van +, tri −
  MIC (% by weight of pentane-1,5-diol): 10.0 % by weight
Pseudomonas aeruginosa; P. aeruginosa CCUG 17619, inoculate size 10^3
  MIC (% by weight of pentane-1,5-diol): 5.0 % by weight
Pseudomonas aeruginosa; P. aeruginosa CCUG 17619, inoculate size 10^5
  MIC (% by weight of pentane-1,5-diol): 5.0 % by weight
Male rabbits
  survival after topical administration: the animals survived
[1]; Coag.neg.staph. 900 × 5515, inoculate size 10^3, MR fuc +
  MIC (% by weight of pentane-1,5-diol): 12.5 % by weight
[1]; Coag.neg.staph. 900 × 5515, inoculate size 10^5, MR fuc +
  MIC (% by weight of pentane-1,5-diol): 15.0 % by weight
[1]; Coag.neg.staph. 900 × 5516, inoculate size 10^3, MR fuc −
  MIC (% by weight of pentane-1,5-diol): 7.5 % by weight
[1]; Coag.neg.staph. 900 × 5516, inoculate size 10^5, MR fuc −
  MIC (% by weight of pentane-1,5-diol): 12.5 % by weight
[1]; Coag.neg.staph. 900 × 5525, inoculate size 10^5, MR fuc −
  MIC (% by weight of pentane-1,5-diol): 7.5 % by weight
[1]; Coag.neg.staph. 900 × 5538, inoculate size 10^3, MR fuc −
  MIC (% by weight of pentane-1,5-diol): 5.0 % by weight
[1]; Coag.neg.staph. 900 × 5538, inoculate size 10^5, MR fuc −
  MIC (% by weight of pentane-1,5-diol): 12.5 % by weight
[1]; Coag.neg.staph. 900 × 5539, inoculate size 10^3, MR fuc −
  MIC (% by weight of pentane-1,5-diol): 7.5 % by weight
[1]; Coag.neg.staph. 900 × 5539, inoculate size 10^5, MR fuc −
  MIC (% by weight of pentane-1,5-diol): 10.0 % by weight
[1]; Coag.neg.staph. 902 × 14176 large, inoculate size 10^3, MR fuc −
  MIC (% by weight of pentane-1,5-diol): 7.5 % by weight
[1]; Coag.neg.staph. 902 × 14176 large, inoculate size 10^5, MR fuc −
  MIC (% by weight of pentane-1,5-diol): 20.0 % by weight
[1]; Coag.neg.staph. 902 × 14176 small, inoculate size 10^3, MR fuc +
  MIC (% by weight of pentane-1,5-diol): 7.5 % by weight
[1]; Coag.neg.staph. 902 × 14176 small, inoculate size 10^5, MR fuc +
  MIC (% by weight of pentane-1,5-diol): 10.0 % by weight
[1]; Coag.neg.staph. 904 × 2816, inoculate size 10^3, MR fuc +
  MIC (% by weight of pentane-1,5-diol): 10.0 % by weight
[1]; Coag.neg.staph. 904 × 2816, inoculate size 10^5, MR fuc +
  MIC (% by weight of pentane-1,5-diol): 17.5 % by weight
[1]; Coag.neg.staph. 916 × 8132, inoculate size 10^3, MR fuc −
  MIC (% by weight of pentane-1,5-diol): 7.5 % by weight
[1]; Coag.neg.staph. 916 × 8132, inoculate size 10^5, MR fuc −
  MIC (% by weight of pentane-1,5-diol): 12.5 % by weight
[1]; Coag.neg.staph. 916 × 8188, inoculate size 10^3, MR fuc −
  MIC (% by weight of pentane-1,5-diol): 15.0 % by weight
[1]; Coag.neg.staph. 916 × 8188, inoculate size 10^5, MR fuc −
  MIC (% by weight of pentane-1,5-diol): 17.5 % by weight
[2]; MRSA CCUG 41787, inoculate size 10^3
  MIC (% by weight of pentane-1,5-diol): 12.5 % by weight
[2]; MRSA CCUG 41787, inoculate size 10^5
  MIC (% by weight of pentane-1,5-diol): 17.5 % by weight
[2]; MRSA CCUG 45007, inoculate size 10^3
  MIC (% by weight of pentane-1,5-diol): 10.0 % by weight
[2]; MRSA CCUG 45007, inoculate size 10^5
  MIC (% by weight of pentane-1,5-diol): 12.5 % by weight
[2]; MRSA CCUG 45008, inoculate size 10^3
  MIC (% by weight of pentane-1,5-diol): 12.5 % by weight
[2]; MRSA CCUG 45008, inoculate size 10^5
  MIC (% by weight of pentane-1,5-diol): 15.0 % by weight
[2]; MRSA CCUG 46463, inoculate size 10^3
  MIC (% by weight of pentane-1,5-diol): 10.0 % by weight
[2]; MRSA CCUG 46463, inoculate size 10^5
  MIC (% by weight of pentane-1,5-diol): 15.0 % by weight
[2]; MRSA CCUG 46618, inoculate size 10^3
  MIC (% by weight of pentane-1,5-diol): 12.5 % by weight
[2]; MRSA CCUG 46618, inoculate size 10^5
  MIC (% by weight of pentane-1,5-diol): 15.0 % by weight
[2]; MRSA CCUG 46740, inoculate size 10^3
  MIC (% by weight of pentane-1,5-diol): 12.5 % by weight
[2]; MRSA CCUG 46740, inoculate size 10^5
  MIC (% by weight of pentane-1,5-diol): 17.5 % by weight
[2]; MRSA CCUG 46870, inoculate size 10^3
  MIC (% by weight of pentane-1,5-diol): 10.0 % by weight
[2]; MRSA CCUG 46870, inoculate size 10^5
  MIC (% by weight of pentane-1,5-diol): 17.5 % by weight
[2]; MRSA CCUG 47019, inoculate size 10^3
  MIC (% by weight of pentane-1,5-diol): 10.0 % by weight
[2]; MRSA CCUG 47019, inoculate size 10^5
  MIC (% by weight of pentane-1,5-diol): 17.5 % by weight
[2]; MRSA Cypem, inoculate size 10^3
  MIC (% by weight of pentane-1,5-diol): 7.5 % by weight
[2]; MRSA Cypem, inoculate size 10^5
  MIC (% by weight of pentane-1,5-diol): 10.0 % by weight
[2]; MRSA PB/SS, inoculate size 10^3
  MIC (% by weight of pentane-1,5-diol): 12.5 % by weight
[2]; MRSA PB/SS, inoculate size 10^5
  MIC (% by weight of pentane-1,5-diol): 15.0 % by weight
Acinetobacter; Acinetobacter 116 × 305
  MIC (% by weight of pentane-1,5-diol): 5.0 % by weight
Acinetobacter; Acinetobacter 117 × 217
  MIC (% by weight of pentane-1,5-diol): 5.0 % by weight
Acinetobacter; Acinetobacter 514 × 1224
  MIC (% by weight of pentane-1,5-diol): 5.0 % by weight
Acinetobacter; Acinetobacter 516 × 748
  MIC (% by weight of pentane-1,5-diol): 2.5 % by weight
Acinetobacter; Acinetobacter 921 × 16968
  MIC (% by weight of pentane-1,5-diol): 5.0 % by weight
Acinetobacter; Acinetobacter 921 × 113359
  MIC (% by weight of pentane-1,5-diol): 2.5 % by weight
Escherichia coli; E. coli 921 × 57387, inoculate size 10^3, MR tri +
  MIC (% by weight of pentane-1,5-diol): 5.0 % by weight
Escherichia coli; E. coli 921 × 57387, inoculate size 10^5, MR tri +
  MIC (% by weight of pentane-1,5-diol): 10.0 % by weight
Escherichia coli; E. coli 921 × 57388, inoculate size 10^3
  MIC (% by weight of pentane-1,5-diol): 5.0 % by weight
Escherichia coli; E. coli 921 × 57388, inoculate size 10^5
  MIC (% by weight of pentane-1,5-diol): 10.0 % by weight
Escherichia coli; E. coli 921 × 57389, inoculate size 10^3
  MIC (% by weight of pentane-1,5-diol): 5.0 % by weight
Escherichia coli; E. coli 921 × 57389, inoculate size 10^5
  MIC (% by weight of pentane-1,5-diol): 10.0 % by weight
Escherichia coli; E. coli 921 × 57397, inoculate size 10^3
  MIC (% by weight of pentane-1,5-diol): 5.0 % by weight
Escherichia coli; E. coli 921 × 57397, inoculate size 10^5
  MIC (% by weight of pentane-1,5-diol): 10.0 % by weight
